Measurements as given in patent US20240043435A1, “TYK-2 INHIBITOR” (BEIGENE, LTD., priority 2020, published 2024).
Where two headings read alike, the source gives them in different places.

Experiments:
[1] = target: T1, TYK2-JH2 (aa 575-869, in-house) protein (Homo sapiens, UniProt P29597); experiment: TYK2-JH2 biochemical assay (HTRF probe displacement); type: binding; settings: for IC50: Biochemical assay, read-out: TYK2-JH2 IC50
T1 construct: TYK2-JH2 (aa 575-869, in-house) protein; made in house
Method: Assay A: TYK2-JH2 Biochemical Assay
Compounds disclosed herein were tested for blocking of TYK2-JH2 (aa 575-869, in-house) protein with its probe in an assay based on Homogeneous Time Resolved Fluorescence. Compound dilution is done according to the following protocol: (1) Prepare 500× compounds solution in DMSO from 500 uM by 5-fold dilution, total 10 doses were included; (2) Prepare 10× compounds solution in an assay buffer containing 20 mM HEPES, pH 7.5, 10 mM MgCl2, 0.005% BSA, 2 mM DTT, 0.015% Brij-35 by transferring 1 μl serial 500× stock solution into 49 μl assay buffer. […] of 0.2 nM recombinant TYK2-JH2 protein was pre-incubated with 1 μl of 10× serial dilution of compounds at room temperature for 0.5 hour. […] The HTRF signals (ex337 nm, em620 nm/665 nm) were read on BMG PHERAstar FS instrument. The inhibition percentage of TYK2 interaction with its probe in presence of increasing concentrations of compounds was calculated based on the ratio of fluorescence at 615 nm to that at 665 nm. The IC50 for each compound was derived from fitting the data to the four-parameter logistic equation by Dotmatics.

pSTAT5/GM-CSF = pSTAT5/GM-CSF cellular assay (JAK2 selectivity); type: cell-based; settings: for Selectivity fold (TYK2/JAK2): pSTAT5/GM-CSF IC50 over pSTAT4/IL-12 IC50
[2] = test system: JAK2, TYK2/p-STAT4 (Tyr693) activated by IL-12 in NK-92 cell line; experiment: IL-12-JAK2, TYK2/p-STAT4 (Tyr693) inhibition IC50 cellular assay; type: cell-based; settings: for IC50: read-out: pSTAT4/IL-12 IC50; for Selectivity fold (TYK2/JAK2): pSTAT5/GM-CSF IC50 vs pSTAT4/IL-12 IC50
From the text: Assay C: IL-12-JAK2, TYK2/p-STAT4 (Tyr693) Inhibition IC50 Cellular Assay
To evaluate the inhibition effect of compounds disclosed herein on JAK2, TYK2/p-STAT4 (Tyr693) activated by IL-12 in NK-92 cell line, NK-92 cells were collected and washed 3 times by DPBS and resuspended in MEM-α (GIBCO, Cat #12561056) with 10% FBS (Gibco, Cat #10099, Lot #1891605), without IL-2 (R&D systems, Cat #202-IL), starved overnight. Cells were collected and resuspended in 1640 medium (phenol red free, Gibco, Cat #11835-030) with 0.1% BSA, and 12.5 μl/5×10^4/well cell suspension were seeded to the 96-well plate (Corning, Cat #3799). Then cells were treated with compounds diluted in 0.2% DMSO 1640 medium, at 37° C., 1 h. Dilution is done according to the following protocol: (1) make 500× compounds solution in DMSO from 5 mM by 4-fold dilution, total 8 doses were included; (3) make 2× compounds solution in assay medium by transferring 0.5 μl serial 500× stock solution into 125 μl assay medium; (4) 15 μl of 2× serial solution is added to cells and incubate at 37° C. for 1 h, the final compound conc. is 10000, 2500, 625, 156.25, 39, 9.8, 2.4 and 0.61 nM, respectively. After 1 h, cells were treated with 2.5 μl medium containing IL-12 at 37° C. (R&D systems, Cat #219-IL-005, final conc. 40 ng/ml), 30 min. Following cells were lysed with 7.5 μl lysis buffer at RT, shaking on shaker for 1 h. 10 μL of cell lysate were transferred to a PE 384-well Proxiplate detection plate, and 5 μL of pre-mixed Alphascreen beads were added to each well. Covered the plate with a plate sealer, span 1000 rpm for 1 min, mix, Incubated overnight at room temperature. Read on BMG PheraStar with Alphascreen protocol. IC 50 values were calculated by fitting dependent data to the four-parameter logistic model using dotmatics software. The assay was performed by using AlphaLISA SureFire Ultra p-STAT4 (Tyr693) Assay Kit—High Volume (PE, Cat #ALSU-PST4-A-HV).

T1 sequence (P29597 575-869): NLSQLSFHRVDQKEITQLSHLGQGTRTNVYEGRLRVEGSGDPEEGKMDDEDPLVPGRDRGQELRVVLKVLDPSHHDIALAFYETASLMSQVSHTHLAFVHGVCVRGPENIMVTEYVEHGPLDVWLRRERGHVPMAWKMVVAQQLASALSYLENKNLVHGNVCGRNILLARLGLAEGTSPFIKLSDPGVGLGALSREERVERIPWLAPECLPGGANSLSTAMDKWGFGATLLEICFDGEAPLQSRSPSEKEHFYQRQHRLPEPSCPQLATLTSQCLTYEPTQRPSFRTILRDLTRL

Structure (SMILES) | IC50 [1] [nM] | IC50 (pSTAT5/GM-CSF) [µM] | Selectivity fold (TYK2/JAK2) (pSTAT5/GM-CSF) [fold] | IC50 ([2]; NK92, Cellular assay) [nM] | IC50 ([2]; Cellular assay) [nM] | Selectivity fold (TYK2/JAK2) ([2]; Cellular assay) [fold] | Kd ([1]; in-house probe of the TYK2-JH2 assay) [nM]
CC(=O)Nc1cc(Nc2cc(C3COCCO3)cc(S(C)(=O)=O)n2)c(-c2ccc3c(n2)OCC(C)(C)O3)cn1 (racemic) [Example Q50, (R/S)—N-(4-((4-(1,4-dioxan-2-yl)-6-(methylsulfonyl)pyridin-2-yl)amino)-5-(2,2-dimethyl-2,3-dihydro-[1,4]dioxino[2,3-b]pyridin-6-yl)pyridin-2-yl)acetamide] | 0.019 | 2.02 | 3231 | 0.626 |  |  | 
CC(=O)Nc1cc(Nc2cc(C3COCCO3)cc(S(C)(=O)=O)n2)c(-c2ccc3c(n2)OCC(C)(C)O3)cn1 (racemic) [Example Q51, (S/R)—N-(4-((4-(1,4-dioxan-2-yl)-6-(methylsulfonyl)pyridin-2-yl)amino)-5-(2,2-dimethyl-2,3-dihydro-[1,4]dioxino[2,3-b]pyridin-6-yl)pyridin-2-yl)acetamide] | 0.034 | > 10 | >10214 |  | 0.979 |  | 
CC(=O)Nc1cc(Nc2cccc(S(C)(=O)=O)n2)c(-c2c[nH]cn2)cn1 [Example A3, N-(5-(1H-imidazol-4-yl)-4-((6-(methylsulfonyl)pyridin-2-yl)amino)pyridin-2-yl)acetamide] | 0.035 | > 10 |  | 2.53 |  | >3952 | 
CC(=O)Nc1cc(Nc2cc(C)cc(S(C)(=O)=O)n2)c(-c2ccco2)cn1 [Example A9, N-(5-(furan-2-yl)-4-((4-methyl-6-(methylsulfonyl)pyridin-2-yl)amino)pyridin-2-yl)acetamide] | 0.041 | > 10 |  | 1.33 |  | >7518 | 
CC(=O)Nc1cc(Nc2cccc(S(C)(=O)=O)c2)c(-c2ncn(C)n2)cn1 [Example A10, N-(5-(1-methyl-1H-1,2,4-triazol-3-yl)-4-((3-(methylsulfonyl)phenyl)amino)pyridin-2-yl)acetamide] | 2.4 |  |  | 3000 |  |  | 
COc1ccc(S(C)(=O)=O)nc1Nc1cc(NC(C)=O)ncc1-c1cnn(C)c1 [Example A11, N-(4-((3-methoxy-6-(methylsulfonyl)pyridin-2-yl)amino)-5-(1-methyl-1H-pyrazol-4-yl)pyridin-2-yl)acetamide] | 0.063 | > 10 |  | 41.7 |  | >239 | 
CC(=O)Nc1cc(Nc2cc(OC(C)C)cc(S(C)(=O)=O)n2)c(-n2cccn2)cn1 [Example A12, N-(4-((4-isopropoxy-6-(methylsulfonyl)pyridin-2-yl)amino)-5-(1H-pyrazol-1-yl)pyridin-2-yl)acetamide] | 0.037 | > 10 |  | 16.8 |  | >595 | 
CC(=O)Nc1cc(Nc2cc(OC(C)C)cc(S(C)(=O)=O)n2)c(-c2ccn(CCO)n2)cn1 [Example A14, N-(5-(1-(2-hydroxyethyl)-1H-pyrazol-3-yl)-4-((4-isopropoxy-6-(methylsulfonyl)pyridin-2-yl)amino)pyridin-2-yl)acetamide] | 0.022 | > 10 |  | 0.969 |  | >10319 | 
COCCn1ccc(-c2cnc(NC(C)=O)cc2Nc2cc(C)cc(S(C)(=O)=O)n2)n1 [Example A15, N-(5-(1-(2-methoxyethyl)-1H-pyrazol-3-yl)-4-((4-methyl-6-(methylsulfonyl)pyridin-2-yl)amino)pyridin-2-yl)acetamide] | 0.04 | 3.46 |  | 0.687 |  | 5039 | 
CC(=O)Nc1cc(Nc2cc(OC(C)C)cc(S(C)(=O)=O)n2)c(-c2cccc(C#N)n2)cn1 [Example A16, N-(6-cyano-4′-((4-isopropoxy-6-(methylsulfonyl)pyridin-2-yl)amino)-[2,3′-bipyridin]-6′-yl)acetamide] | 0.021 | > 10 |  | 0.667 |  | >14992 | 
CC(=O)Nc1cc(Nc2cc(OC(C)C)cc(S(C)(=O)=O)n2)c(-c2ccc(C#N)cn2)cn1 [Example A17, N-(5-cyano-4′-((4-isopropoxy-6-(methylsulfonyl)pyridin-2-yl)amino)-[2,3′-bipyridin]-6′-yl)acetamide] | 0.028 | > 10 |  | 1.64 |  | >6097 | 
CC(=O)Nc1cc(Nc2cc(OC(C)C)cc(S(C)(=O)=O)n2)c(-c2ccn(C3CCC3)n2)cn1 [Example A19, N-(5-(1-cyclobutyl-1H-pyrazol-3-yl)-4-((4-isopropoxy-6-(methylsulfonyl)pyridin-2-yl)amino)pyridin-2-yl)acetamide] | 0.034 | > 10 |  | 1.53 |  | >6535 | 
CC(=O)Nc1cc(Nc2cc(C)cc(S(C)(=O)=O)n2)c(-c2ccc(C(C)(C)N)cn2)cn1 [Example A20, N-(5-(2-aminopropan-2-yl)-4′-((4-methyl-6-(methylsulfonyl)pyridin-2-yl)amino)-[2,3′-bipyridin]-6′-yl)acetamide] | 0.03 | 2.38 |  | 1.12 |  | 2124 | 
CC(=O)Nc1cc(Nc2cccc(S(C)(=O)=O)n2)c(-c2cccnn2)cn1 [Example A24, N-(4-((6-(methylsulfonyl)pyridin-2-yl)amino)-5-(pyridazin-3-yl)pyridin-2-yl)acetamide] | 0.027 | > 10 |  | 1.85 |  | >5405 | 
CC(=O)Nc1cc(Nc2cc(N3CCCC3)cc(S(C)(=O)=O)n2)c(-c2ccc3c(n2)OCC(C)(C)O3)cn1 [Example Q104, N-(5-(2,2-dimethyl-2,3-dihydro-[1,4]dioxino[2,3-b]pyridin-6-yl)-4-((6-(methylsulfonyl)-4-(pyrrolidin-1-yl)pyridin-2-yl)amino)pyridin-2-yl)acetamide] | 0.029 |  |  |  |  |  | 
CC(=O)Nc1cc(Nc2cc(N3CC4CC4C3)cc(S(C)(=O)=O)n2)c(-c2ccc3c(n2)OCC(C)(C)O3)cn1 (stereo not shown) [Example Q106, N-(4-((4-(3-azabicyclo[3.1.0]hexan-3-yl)-6-(methylsulfonyl)pyridin-2-yl)amino)-5-(2,2-dimethyl-2,3-dihydro-[1,4]dioxino[2,3-b]pyridin-6-yl)pyridin-2-yl)acetamide] | 0.015 |  |  |  |  |  | 
CC(=O)Nc1cc(Nc2cc(C3(C#N)CC3)cc(S(C)(=O)=O)n2)c(-c2ccc3c(n2)OCC(C)(C)O3)cn1 [Example Q120, N-(4-((4-(1-cyanocyclopropyl)-6-(methylsulfonyl)pyridin-2-yl)amino)-5-(2,2-dimethyl-2,3-dihydro-[1,4]dioxino[2,3-b]pyridin-6-yl)pyridin-2-yl)acetamide] | 0.032 |  |  |  |  |  | 
Cc1cc(C)cc(Nc2cc(NCCNC(=O)CCOCCOCCOCCOCCOCCOCCNC(=O)CCCC[C@@H]3SC[C@@H]4NC(=O)N[C@@H]43)c3ncc(C(N)=O)n3n2)c1 [Probe 1, 6-((3,5-dimethylphenyl)amino)-8-((4,26-dioxo-30-((3aS,4S,6aR)-2-oxohexahydro-1H-thieno[3,4-d]imidazol-4-yl)-7,10,13,16,19,22-hexaoxa-3,25-diazatriacontyl)amino)imidazo[1,2-b]pyridazine-3-carboxamide, reference compound] |  |  |  |  |  |  | 10
